{
  "source": "patent US20250024872A1",
  "about": "“SALTY TASTE ENHANCER” (AJINOMOTO CO., INC., priority 2022, published 2025)",
  "experiment": "sensory evaluation of saltiness intensity by expert panel, 1.0% sodium chloride solution",
  "type": "in vivo",
  "description": "Evaluation samples 1 to 10 were prepared by adding a cyclotene diluted solution (using propylene glycol as a solvent) to 1.0% sodium chloride solution to adjust the concentration of cyclotene in the sodium chloride solution as shown in the following Table 1. The amount of propylene glycol added was adjusted to be the same in all evaluation samples.\nA panel of four experts conducted a sensory evaluation of the saltiness intensity of evaluation samples 1 to 10. The sensory evaluation was performed by the four experts, who scored each evaluation sample in 0.1 point increments based on the following evaluation scale using 1.0% sodium chloride solution, 1.025% sodium chloride solution and 1.05% sodium chloride solution as reference samples, and calculated the average score of the four experts. The four experts were previously trained to have a common understanding of the following saltiness intensity evaluation scale, such as the amount of saltiness intensity change required to cause a score change of 0.1 point.\n• 0.0 points: saltiness intensity equivalent to 1.0% sodium chloride solution • 5.0 points: saltiness intensity equivalent to 1.025% sodium chloride solution • 10.0 points: saltiness intensity equivalent to 1.05% sodium chloride solution",
  "data": [
    {"smiles": "CC1=C(O)C(=O)CC1", "note": "[cyclotene]", "values": [
      {"measurement": "saltiness enhancement (in words)", "value": "has a saltiness enhancing action"}
    ]}
  ]
}
